Reference: patent publication US10111921B2, “Regulation of brain biogenic amines associated with depression by a formulation from botanical source” (GoVind Prasad Dubey, priority 2014, dated 2018)
Marks after values point to notes of the source that are not given here.

Columns and labels:
Melatonin = Melatonin level in brain, experimental sleep deprivation stress model; format: in vivo, rats of Charles foster strain; settings: 7 days sleep deprivation stress + drug, 10 rats
Method: In this group the sleep deprivation stress was introduced along with the hydro-alcoholic extract of three plants Nyctanthes arbor-tristis, Ocimum tenuiflorum and Hippophae salicifolia. […] On 7th day (after two hours of administration of test drug) different parts of the rat's brain were dissected and 5-HT, melatonin GABA. glutamate and histamine were measured. […]

GABA [1] = experiment: GABA content in the brain following experimental sleep deprivation stress; format: in vivo, rats of Charles foster strain; settings: 7 days sleep deprivation stress + drug, 10 rats
Description: (§1) The study is divided into four groups, 10 rats of Charles foster strain were kept in each study group.
(§2) In control group 10 rats were selected and kept on normal saline for 7 days. On 7th days the animals were sacrificed and various biogenic amines like 5-HT GABA & glutamate, melatonin and MAO were estimated. After dissection of rat's brain the biogenic amines were estimated in thalamus, hypothalamus and cortex.
(§3) In this group sleep deprivation stress for 7 days was given to all the 10 rats. After 7 days the rat's brain were dissected and thalamus, hypo-thalamus and cortex were separated for the measurement of brain biogenic amines.
(§4) In this group the sleep deprivation stress was introduced along with the hydro-alcoholic extract of three plants Nyctanthes arbor-tristis, Ocimum tenuiflorum and Hippophae salicifolia. The drug Nyctanthes arbor-tristis (100 mg/kg bw./day), Ocimum tenuiflorum (50 mg/kg bw./day), Hippophae salicifolia (50 mg/kg bw./day) was given in combined form to all the 10 rats along with sleep deprivation stress. On 7th day (after two hours of administration of test drug) different parts of the rat's brain were dissected and 5-HT, melatonin GABA. glutamate and histamine were measured.
(§5) On 7th days the animals were sacrifice and brain biogenic amines were estimated in different parts of rat's brain.
(§6) The value obtained were compared with each other group (Normal vs sleep deprivation stress and sleep deprivation stress vs sleep deprivation stress+test formulation and sleep deprivation stress vs modern drug treatment group. Apart from initial at 7 day before sacrificing the animals circulating biogenic amines were also measured in all the three groups.

Glutamate [2] = experiment: Glutamate level in brain following experimental sleep deprivation stress; format: in vivo, rats of Charles foster strain; settings: 7 days sleep deprivation stress + drug, 10 rats
Description: as §1, §2, §3, §4, §5, §6

GABA [3] = experiment: Circulating GABA following experimental sleep deprivation stress; format: in vivo, rats of Charles foster strain; settings: 7 days sleep deprivation stress + drug, 10 rats
Method: as §1, §4, §5, §6

Glutamate [4] = experiment: Circulating glutamate following experimental sleep deprivation stress; format: in vivo, rats of Charles foster strain; settings: 7 days sleep deprivation stress + drug, 10 rats
Method: as §1, §4, §5, §6

MAO = experiment: Circulating MAO following experimental sleep deprivation stress; format: in vivo, rats of Charles foster strain; settings: 7 days sleep deprivation stress + drug, 10 rats
Method: as §1, §4, §5, §6

Histaminase = experiment: Circulating histaminase following experimental sleep deprivation stress; format: in vivo, rats of Charles foster strain; settings: 7 days sleep deprivation stress + drug, 10 rats
Method: as §1, §4, §5, §6

[5] = tested on: mild to moderate depression; experiment: Clinical symptomatology (in percent), clinical trial; format: in vivo, human
Method: (§7) In the present study 99 cases between the age group of 20 to 60 years presenting the symptoms of mild to moderate depression were selected for clinical trial of test formulation containing extract of Nyctanthes arbor-tristis, Ocimum tenuiflorum and Hippophae salicifolia. The subjects were advised to take test formulation twice in a day in two divided doses (475 mg morning and 475 mg in the evening). The level of mood was measured by Major Depression Inventory (MDI) developed by Olsen L R et al (2003), the fatigue and psychomotor performance was measured by Mental Fatigue Apparatus and Rotary Pursuit Task. These tests and test battery are recommended by Gupta and Dubey (1994) for the scientific and objective assessment in the area of drug development. The behavioral pattern was repeatedly assessed at the continuous interval of one month for six months.

minor depressive cases [6] = experiment: Mental fatigue level (Mental Fatigue Apparatus), clinical trial; format: in vivo, human
Method: as §7

minor depressive cases [7] = experiment: Rotatory pursuit task (psychomotor coordination), clinical trial; format: in vivo, human
Method: as §7

[8] = tested on: depressive disorder cases; experiment: Anxiety level (score), clinical trial; format: in vivo, human
Method: as §7

[9] = tested on: depressive disorder cases; experiment: Mental fatigue (Time), clinical trial; format: in vivo, human
Method: as §7

depression patients = experiment: Attention span (score), clinical trial; format: in vivo, human
Method: as §7

GABA [10] = experiment: GABA level in depression cases; format: in vivo, human
Method: as §7

Glutamate [11] = experiment: Glutamate level in depression cases; format: in vivo, human
Method: as §7

Platelet MAO = Platelet MAO activity in depressive disorder cases; format: in vivo, human
Method: as §7

Glutamate [12] = experiment: Column headed Glutamate (nmol/mg/hr) in platelet MAO table, depressive disorder cases; format: in vivo, human; settings: After 6 months; clinical Table 8
Description: (§8) In the present study 99 cases between the age group of 20 to 60 years presenting the symptoms of mild to moderate depression were selected for clinical trial of test formulation containing extract of Nyctanthes arbor-tristis, Ocimum tenuiflorum and Hippophae salicifolia. […] The behavioral pattern was repeatedly assessed at the continuous interval of one month for six months.

Epinephrine = Epinephrine level in depressive cases; format: in vivo, human; settings: Initial
Description: as §8

IL-1 β = experiment: Interleukin-1 β concentration in mild to moderate depressive patients; format: in vivo, human
Method: as §7

TNF-α = TNF-α in mild to moderate depressive patients; format: in vivo, human
Method: as §7

DHA = DHA content in mild to moderate depressive patients; format: in vivo, human
Method: as §7

depression cases [13] = experiment: Occipito frontalis muscle action potential in depression cases; format: in vivo, human
Method: as §7

depression cases [14] = experiment: Delta wave in depression cases; format: in vivo, human
Method: as §7

Neuro-peptide-γ = Neuro-peptide-γ content in depressed patients; format: in vivo, human
depressive patients = experiment: Sleep pattern by polysomnographic studies in depressive patients; format: in vivo, human
Method: as §7
In control series (Sertraline treated) all the investigations were repeated and compared with the treated group.
There is an increase in DHA content after oral administration of test formulation for 6 months (Table-12). […] Neuro-peptide-γ is the 36-amino acid which affects anxiety, stress, pain, circadian rhythm and also associated various psychiatric disorders particularly depression of varying degree. […] The effect of test formulation on sleep pattern measured by recording on polysomnographic studies indicated improvement in sleep period, total sleep, sleep latency and various stages of sleep. Though none of the cases could achieve the stage four. The results obtained in the test formulation treatment group were compared with the conventional drug treated group and exerted significant difference when the conventional treated group was compared with the test formulation treated group (Table-16-17). The drug was found safe and effective after 6 months of continuous oral administration to depressed patients.

## CNC1=Nc2ccc(Cl)cc2C(c2ccccc2)=[N+]([O-])C1 [Librium]
Melatonin; hypothalamus
  Melatonin, Hypothalamus: 7.80 ± 1.02 μg/gm in wet tissue
Melatonin; thalamus
  Melatonin, Thalamus: 5.95 ± 1.85 μg/gm in wet tissue
GABA [1]; cortex
  GABA, Cortex: 2.62 ± 0.59 μmol/gm in wet tissue
GABA [1]; hypothalamus
  GABA, Hypothalamus: 4.68 ± 1.02 μmol/gm in wet tissue
GABA [1]; thalamus
  GABA, Thalamus: 3.91 ± 0.58 μmol/gm in wet tissue
Glutamate [2]; cortex
  Glutamate, Cortex: 13.97 ± 2.11 μmol/gm in wet tissue
Glutamate [2]; hypothalamus
  Glutamate, Hypothalamus: 12.66 ± 3.06 μmol/gm in wet tissue
Glutamate [2]; thalamus
  Glutamate, Thalamus: 11.64 ± 3.01 μmol/gm in wet tissue
GABA [3]
  GABA (circulating): 1.02 ± 0.18 µmol/mL
Glutamate [4]
  Glutamate (circulating): 1.11 ± 0.10 µmol/mL
MAO
  MAO (circulating): 4.72 ± 0.89 nmol/m//hrs.
Histaminase
  Histaminase (circulating): 35.46 ± 4.95 µg/mL

## CN[C@H]1CC[C@@H](c2ccc(Cl)c(Cl)c2)c2ccccc21 [Sertraline]
[5]; After 6 months
  Early fatiguability: 91.12* percent
  Lack of interest: 92.20* percent
  Pessimistic thinking: 95.86* percent
  Poor appetite: 50.03* percent
  Poor concentration: 86.02* percent
  Poor sleep: 79.41* percent
  Psychomotor retardation: 78.09* percent
  Weight loss: 40.32* percent
[5]; Initial
  Early fatiguability: 98.01%
  Lack of interest: 97.82%
  Pessimistic thinking: 96.27%
  Poor appetite: 58.89%
  Poor concentration: 88.41%
  Poor sleep: 98.04%
  Psychomotor retardation: 74.66%
  Weight loss: 42.01%
Minor depressive cases [6]; After 2 months
  Mental fatigue level: 19.68 Hz
Minor depressive cases [6]; After 4 months
  Mental fatigue level: 19.02 Hz
Minor depressive cases [6]; After 6 months
  Mental fatigue level: 18.45 Hz
Minor depressive cases [6]; Initial
  Mental fatigue level: 18.22 Hz
Minor depressive cases [7]; After 2 months
  Rotatory pursuit task: 28.03 Hz
Minor depressive cases [7]; After 4 months
  Rotatory pursuit task: 27.47 Hz
Minor depressive cases [7]; After 6 months
  Rotatory pursuit task: 26.52 Hz
Minor depressive cases [7]; Initial
  Rotatory pursuit task: 28.39 Hz
[8]; After 6 months
  Anxiety level: 58.5 score
[8]; Initial
  Anxiety level: 56.5 score
[9]; After 6 month
  Mental fatigue (Time): 90.3
[9]; Initial
  Mental fatigue (Time): 94.5
Depression patients; After 6 months
  Attention span: 9.32 Score
Depression patients; Initial
  Attention span: 10.49 Score
GABA [10]; After 6 months
  GABA: 1.410 µmol/mL
GABA [10]; Initial
  GABA: 1.070 µmol/mL
Glutamate [11]; After 6 months
  Glutamate: 0.385 µmol/mL
Glutamate [11]; Initial
  Glutamate: 0.419 µmol/mL
Platelet MAO; After 6 months
  Platelet MAO: 5.98 nmol/mL/h
Platelet MAO; Initial
  Platelet MAO: 5.04 nmol/mL/h
Glutamate [12]
  Glutamate: 4.23 nmol/mg/h
Epinephrine
  Epinephrine: 5.32 ng/mL
IL-1 β; After 2 months
  IL-1 β: 1.886 µg/mL
IL-1 β; After 4 months
  IL-1 β: 1.923 µg/mL
IL-1 β; After 6 months
  IL-1 β: 1.790 µg/mL
IL-1 β; Initial
  IL-1 β: 2.098 µg/mL
TNF-α; After 2 months
  TNF-1 α: 3.71 ng/mL
TNF-α; After 4 months
  TNF-1 α: 3.85 ng/mL
TNF-α; After 6 months
  TNF-1 α: 4.14 ng/mL
TNF-α; Initial
  TNF-1 α: 4.82 ng/mL
DHA; After 2 months
  DHA: 1.082 g/100 g of total fatty acid
DHA; After 4 months
  DHA: 1.920 g/100 g of total fatty acid
DHA; After 6 months
  DHA: 1.980 g/100 g of total fatty acid
DHA; Initial
  DHA: 1.096 g/100 g of total fatty acid
Depression cases [13]; After 2 months
  Occipito frontalis muscle action potential: 41.75
Depression cases [13]; After 4 months
  Occipito frontalis muscle action potential: 42.82
Depression cases [13]; After 6 months
  Occipito frontalis muscle action potential: 40.86
Depression cases [13]; Initial
  Occipito frontalis muscle action potential: 4.378
Depression cases [14]; After 2 months
  Delta Wave: 0.94 Hz
Depression cases [14]; After 4 months
  Delta Wave: 1.06 Hz
Depression cases [14]; After 6 months
  Delta Wave: 1.02 Hz
Depression cases [14]; Initial
  Delta Wave: 0.68 Hz
Neuro-peptide-γ; After 2 months
  Neuro-peptide-γ: 148.90 pg/mL
Neuro-peptide-γ; After 4 months
  Neuro-peptide-γ: 151.89 pg/mL
Neuro-peptide-γ; After 6 months
  Neuro-peptide-γ: 156.04 pg/mL
Neuro-peptide-γ; Initial
  Neuro-peptide-γ: 129.68 pg/mL
Depressive patients; After 6 months treatment
  Sleep Latency: 14.98 min
  Sleep period: 438.35 min
  Stage-I (Time in min): 162.98 min
  Stage-II (Time in min): 46.22 min
  Stage-III (Time in min): 15.82 min
  Total Sleep: 201.94 min
Depressive patients; Before treatment
  Sleep Latency: 13.62 min
  Sleep period: 445.90 min
  Stage-I (Time in min): 179.32 min
  Stage-II (Time in min): 45.82 min
  Stage-III (Time in min): 18.22 min
  Total Sleep: 234.98 min
